Legend:
[1] = tested on: LRH-1; settings: cited from earlier work
[2] = tested on: SW-13 cell line; settings: cited from earlier work
[3] = tested on: H295R cell line; settings: cited from earlier work
[4] = Solubility; format: physicochemical
[5] = target: mouse SF-1 (Mus musculus, UniProt P33242); test: RT-qPCR of endogenous target genes in HEK293 cells stably expressing SF-1; format: cell-based; settings: 10 µM, 24 h, relative to DMSO
[6] = target: hLRH-1 (Homo sapiens, UniProt O00482); test: RT-qPCR of endogenous target genes in HEK293 cells stably expressing hLRH-1; format: cell-based; settings: 10 µM, 24 h
Chain of hLRH-1 (O00482 whole entry, the tested form may be a part): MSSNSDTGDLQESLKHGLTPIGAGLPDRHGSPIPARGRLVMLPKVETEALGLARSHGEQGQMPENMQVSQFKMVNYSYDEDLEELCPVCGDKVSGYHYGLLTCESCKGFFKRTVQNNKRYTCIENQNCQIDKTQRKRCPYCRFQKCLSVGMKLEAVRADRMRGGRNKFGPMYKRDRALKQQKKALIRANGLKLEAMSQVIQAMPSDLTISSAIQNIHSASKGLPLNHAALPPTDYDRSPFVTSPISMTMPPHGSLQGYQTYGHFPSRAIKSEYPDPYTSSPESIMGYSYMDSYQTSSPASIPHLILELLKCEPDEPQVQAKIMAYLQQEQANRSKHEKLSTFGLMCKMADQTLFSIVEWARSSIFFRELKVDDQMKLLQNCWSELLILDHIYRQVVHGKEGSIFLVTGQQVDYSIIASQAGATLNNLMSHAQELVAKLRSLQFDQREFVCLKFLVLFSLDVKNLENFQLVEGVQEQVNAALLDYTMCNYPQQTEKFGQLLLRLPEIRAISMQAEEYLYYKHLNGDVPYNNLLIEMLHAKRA

[7] = target: hLRH-1 LBD alone (no lipid added) (Homo sapiens, UniProt O00482); test: Native gel; format: binding; settings: doses up to 100 µM
Chain of hLRH-1 LBD alone (no lipid added) (O00482 300-539 limits assumed): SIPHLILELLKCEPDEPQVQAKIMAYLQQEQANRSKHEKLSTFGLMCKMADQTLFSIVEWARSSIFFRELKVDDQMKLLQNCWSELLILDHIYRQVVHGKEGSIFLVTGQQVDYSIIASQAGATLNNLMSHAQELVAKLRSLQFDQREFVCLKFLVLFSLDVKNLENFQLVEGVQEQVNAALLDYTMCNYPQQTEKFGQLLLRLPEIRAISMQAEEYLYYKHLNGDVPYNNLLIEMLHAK

[8] = room temperature, 2 weeks
[9] = tested on: SF-1; settings: read-out: IC50 inverse agonist of SF-1; cited from earlier work
[10] = target: human LRH-1 ligand binding domain, labeled with biotin (human, UniProt O00482 300-541, biotin (site not stated)); test: FRET or BRET
Chain of human LRH-1 ligand binding domain, labeled with biotin (O00482 300-541): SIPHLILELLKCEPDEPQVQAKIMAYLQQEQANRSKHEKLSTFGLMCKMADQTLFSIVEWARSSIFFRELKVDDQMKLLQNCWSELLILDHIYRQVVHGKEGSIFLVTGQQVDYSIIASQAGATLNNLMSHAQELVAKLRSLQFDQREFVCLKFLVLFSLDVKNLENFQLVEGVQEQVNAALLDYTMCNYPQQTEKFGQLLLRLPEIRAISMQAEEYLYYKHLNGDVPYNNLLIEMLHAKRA

Chain of mouse SF-1 (P33242 whole entry): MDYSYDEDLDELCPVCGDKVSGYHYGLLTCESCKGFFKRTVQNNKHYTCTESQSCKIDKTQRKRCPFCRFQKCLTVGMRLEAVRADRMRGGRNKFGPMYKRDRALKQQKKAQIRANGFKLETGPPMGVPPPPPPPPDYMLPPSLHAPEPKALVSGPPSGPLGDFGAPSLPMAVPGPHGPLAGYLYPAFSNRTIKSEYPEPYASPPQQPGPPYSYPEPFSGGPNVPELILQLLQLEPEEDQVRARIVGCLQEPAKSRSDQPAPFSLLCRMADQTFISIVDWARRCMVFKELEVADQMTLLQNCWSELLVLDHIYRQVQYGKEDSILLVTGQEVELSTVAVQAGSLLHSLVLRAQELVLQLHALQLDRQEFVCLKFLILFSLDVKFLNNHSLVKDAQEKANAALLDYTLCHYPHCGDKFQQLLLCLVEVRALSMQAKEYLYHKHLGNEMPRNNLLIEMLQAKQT

CCCCCCCOc1ccc(O)cc1 [Compound 8, p-heptyloxyphenol]
activity against LRH-1 [1]: no activity
proliferation of SW-13 (SF-1 negative) [2]: had the same effect
proliferation of H295R [3]: inhibit proliferation

C=C(c1ccccc1)[C@@]12CN(C)C[C@@H]1CC(CCCCCC)=C2c1ccccc1 (racemic) [Compound 20a]
solubility, in words [4]: improved solubility
SF-1-mediated transcription of endogenous SHP, StAR, G0S2 and MeOX1 target genes [5]: significantly activate
LRH-1 transcription of the SHP and MeOx1 genes [6]: failed to activate
LRH-1 transcription of the StAR and G0S2 genes [6]: activated

C=C(CCCC)[C@@]12CCC[C@@H]1CC(CCCCCC)=C2c1ccccc1 (racemic) [Compound 18j, rac-(1R,5R)-1-(Hex-1-en-2-yl)-3-hexyl-2-phenyl-bicyclo[3.3.0]oct-2-ene]
solubility, in words [4]: very poor solubility in aqueous media
shift in hLRH-1 LBD native PAGE migration [7]: does not appear competent to shift hLRH-1 LBD migration

C=C(c1ccccc1)[C@@]12CC[C@@H](O)[C@@H]1CC(CCCCCC)=C2c1ccccc1 (racemic) [Compound 24-exo, rac-(1R,5R,6R)-3-Hexyl-6-hydroxy-2-phenyl-1-(phenylvinyl)-bicyclo[3.3.0]oct-2-ene]
solubility, in words [4]: reasonable solubility in polar solvents
SF-1-mediated transcription of endogenous SHP, StAR, G0S2 and MeOX1 target genes [5]: significantly activate

C=C(c1ccccc1)[C@@]12CCC[C@@H]1CC(CCCCCC)=C2CCCO (racemic) [Compound 18s, rac-(1R,5R)-3-Hexyl-1-(phenylvinyl)-2-(propan-3-ol)-bicyclo[3.-3.0]oct-2-ene]
shift in hLRH-1 LBD native PAGE migration [7]: can consistently shift hLRH-1 LBD migration in this native gel assay, albeit with reduced potency as compared to 24-exo

C=C(c1ccccc1)[C@@]12CCC[C@@H]1CC(CCCCCC)=C2c1ccccc1 (racemic) [Compound 18a, rac-(1R,5R)-3-Hexyl-2-phenyl-1-(1-phenylvinyl)-bicyclo[3.3.0]oc-t-2-ene]
stability in CDCl3 in the presence of daylight [8]: stable

CCOC(=O)C(C)Oc1cccc2c(=O)n(CC(=O)Nc3ccc(OC)cc3)ccc12 (centres unmarked) [Compound 9]
effect on SW-13 (SF-1 negative) ([2]; 10 µM): little effect
doxycycline (DOX) induced proliferation of H295R ([3]; 10 µM): modestly suppressed
IC50 [9]: 200 nM

B1: biotin-labeled peptide derived from TIF-2 amino acids 737-757 (peptide)
peptide: QEPVSPKKKENALLRYLLDKDDTKD
HELM: PEPTIDE1{[O=C1N[C@H]2[C@H](CS[C@H]2CCCCC(=O)[*:2])N1].Q.E.P.V.S.P.K.K.K.E.N.A.L.L.R.Y.L.L.D.K.D.D.T.K.D.[am]}$$$$V2.0
SMILES: CC(C)C[C@H](NC(=O)[C@H](C)NC(=O)[C@H](CC(N)=O)NC(=O)[C@H](CCC(=O)O)NC(=O)[C@H](CCCCN)NC(=O)[C@H](CCCCN)NC(=O)[C@H](CCCCN)NC(=O)[C@@H]1CCCN1C(=O)[C@H](CO)NC(=O)[C@@H](NC(=O)[C@@H]1CCCN1C(=O)[C@H](CCC(=O)O)NC(=O)[C@H](CCC(N)=O)NC(=O)CCCC[C@@H]1SC[C@@H]2NC(=O)N[C@@H]21)C(C)C)C(=O)N[C@@H](CC(C)C)C(=O)N[C@@H](CCCNC(=N)N)C(=O)N[C@@H](Cc1ccc(O)cc1)C(=O)N[C@@H](CC(C)C)C(=O)N[C@@H](CC(C)C)C(=O)N[C@@H](CC(=O)O)C(=O)N[C@@H](CCCCN)C(=O)N[C@@H](CC(=O)O)C(=O)N[C@@H](CC(=O)O)C(=O)N[C@H](C(=O)N[C@@H](CCCCN)C(=O)N[C@@H](CC(=O)O)C(N)=O)[C@@H](C)O
binding result [10]: binds

— publication PMC4151520 (Journal of medicinal chemistry, 2011)
